Patent US11261152B2, “Inhibitors of the N-terminal domain of the androgen receptor” (The Regents of the University of California, priority 2017, dated 2022)
“Also recorded” adds a separate entry of the source.

How the values were obtained:
[1] = test system: glucocorticoid response element (GRE) / glucocorticoid receptor; experiment: GRE reporter assay; assay type: cell-based; conditions: Table 3 grade HIGH/MED/LOW, grades not defined
Procedure: FIG. 11B. Effects of JN series compounds in reporter assays for glucocorticoid response element. Experiments were performed in triplicate and results are means+/−s.d.

[2] = test system: AR transcriptional activity (MMTV reporter); experiment: MMTV reporter assay; assay type: cell-based; conditions: Table 3 grade HIGH/MED/LOW, grades not defined
c-Jun TAD = experiment: JUN-TAD fused to GAL4 DNA-binding domain reporter assay; assay type: cell-based; conditions: Table 3 grade HIGH/MED/LOW, grades not defined
Excerpt: (§1) The inhibitory activity of JN018 was further evaluated in experiments in which the AR transactivation domain (TAD) or the c-Jun or CREB TAD was fused to the heterologous GAL4 DNA-binding domain and thereby drive reporter gene expression governed by the GAL4 response element (FIG. 1).

[3] = molecular target: T1, AR transactivation domain (TAD) (Homo sapiens, UniProt P10275); experiment: AR-TAD fused to GAL4 DNA-binding domain reporter assay; assay type: cell-based; conditions: Table 3 grade HIGH/MED/LOW, grades not defined
T1 construct: expressed in transfected cells
T1 sequence (P10275 1-559 limits assumed): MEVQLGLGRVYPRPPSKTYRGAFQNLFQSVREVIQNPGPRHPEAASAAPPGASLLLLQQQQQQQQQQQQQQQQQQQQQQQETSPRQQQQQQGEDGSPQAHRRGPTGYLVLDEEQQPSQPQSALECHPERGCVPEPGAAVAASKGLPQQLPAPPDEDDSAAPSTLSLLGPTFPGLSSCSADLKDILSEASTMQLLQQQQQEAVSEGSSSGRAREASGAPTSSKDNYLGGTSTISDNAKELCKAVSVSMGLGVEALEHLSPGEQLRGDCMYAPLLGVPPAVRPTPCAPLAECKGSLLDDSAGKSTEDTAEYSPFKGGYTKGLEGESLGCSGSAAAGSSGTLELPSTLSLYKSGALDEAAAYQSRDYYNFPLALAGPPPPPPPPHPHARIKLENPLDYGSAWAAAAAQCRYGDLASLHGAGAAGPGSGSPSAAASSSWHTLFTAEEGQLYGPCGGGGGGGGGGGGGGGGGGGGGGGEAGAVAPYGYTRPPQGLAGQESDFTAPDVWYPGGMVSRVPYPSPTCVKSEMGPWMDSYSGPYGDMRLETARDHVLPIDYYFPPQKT
Excerpt: as §1

[4] = test system: androgen response element (ARE); experiment: ARE reporter assay (tandem copies of the androgen response element); assay type: cell-based; conditions: for ARE: Table 3 grade HIGH/MED/LOW, grades not defined; for reporter activity driven by the ARE: result in words
Procedure: FIG. 11A. Effects of JN series compounds in reporter assays for androgen response element. Experiments were performed in triplicate and results are means+/−s.d.

[5] = test system: AR-null PCa cells (DU145, PC3); experiment: MTT / CellTiter GLO cell viability, AR-null prostate cancer cells; conditions: for MTT AR-Neg: Table 3 grade HIGH/MED/LOW, grades not defined; for growth of AR null prostate cancer cells: result in words
Procedure: (§2) The results are means of quadruplicate expts±s.d. Top panel: CellTiter GLO luminescent bioassay (arbitrary units on vertical axis). Bottom panel: classical MTT assay ([blue/yellow]=[viable/non-viable]).
(§3) Experiments were performed in quadruplicate; results are means+/−s.d.
AR null PC3 cells were exposed to the indicated compounds for 6 days; cell viability was measured by MTT assay. Results were normalized to that of vehicle control. Experiments were performed in quadruplicate; results are means+/−s.d.
For each compound and concentration in the figure, the bars represent relative cell viability of 22Rv1, LAPC4, and DU145, from left to right.
For each compound and concentration in the figure, the bars represent relative cell viability of CWR22 and PC3, from left to right.

CREB TAD = experiment: CREB-TAD fused to GAL4 DNA-binding domain reporter assay; assay type: cell-based; conditions: Table 3 grade HIGH/MED/LOW, grades not defined
Excerpt: as §1

[6] = test system: AR positive PCa cells (LNCaP, LNCaP-AR, CWR22, 22Rv1, LAPC4); experiment: MTT / CellTiter GLO cell viability, AR positive prostate cancer cells; conditions: for MTT AR-Pos: Table 3 grade HIGH/MED/LOW, grades not defined; for growth inhibitory / suppressive effects as compared to JN018 / growth of AR expressing prostate cancer cells: result in words
Procedure: as §2, §3
Results were normalized to that of vehicle control. Experiments were performed in quadruplicate; results are means+/−s.d.
Next, the effects of the compounds on growth of prostate cancer cell lines in vitro were evaluated.

[7] = test system: AP1 mediated reporter activity; experiment: AP1 reporter assay; assay type: cell-based; conditions: Table 3 grade HIGH/MED/LOW, grades not defined
A549 = experiment: Growth of lung cancer cells; assay type: cell-based; conditions: not shown
Excerpt: Further modifications of R1 yielded compounds with a spectrum of growth suppressive effects.

[8] = test system: LNCaP-AR castration resistant cell line; experiment: LNCaP-AR castration resistant xenograft in castrated nude mice; assay type: in vivo; conditions: for tumor growth of LNCaP-AR model in castrated nude mice: oral gavage once per day, five days per week (Mon-Fri); for signs of toxicity in mice: xenograft study, oral gavage Mon-Fri
Procedure: FIG. 12A. In vivo effects of JN series compounds.
FIG. 12B. In vivo effects of JN series compounds.
Selected compounds were tested in a mouse xenograft model. In this model, the LNCaP-AR castration resistant cell line was grown subcutaneously in the flanks of castrated nude mice. When tumors reached 150-200 mm^3, mice were administered selected JN series compounds, vehicle or positive control by oral gavage once per day for five days per week (Mon-Fri). […].

SMILES | GRE [1] | MMTV [2] | JUN-TAD (c-Jun TAD) | AR-TAD [3] | ARE [4] | MTT AR-Neg [5] | CREB-TAD (CREB TAD) | MTT AR-Pos [6] | AP1 [7] | reporter activity driven by the ARE [4] | growth of AR null prostate cancer cells [5] | growth of lung cancer cells (A549) (A549) | growth inhibitory / suppressive effects as compared to JN018 [6] | growth of AR expressing prostate cancer cells [6] | tumor growth of LNCaP-AR model in castrated nude mice [8] | signs of toxicity in mice [8]
Cc1ccc(/C=C(\CN(C)Cc2ccccc2)C(=O)c2ccccc2)cc1 [JN043] | HIGH | HIGH | LOW | HIGH | HIGH | MED | MED | HIGH | – | – | – | – | – | – | – | –
CN(C/C(=C\c1ccc(Br)cc1)C(=O)c1ccccc1)Cc1ccccc1 [JN022] | – | HIGH | HIGH | HIGH | LOW | HIGH | LOW | HIGH | – | – | – | – | – | – | – | –
C=C(CN(C)Cc1ccccc1)C(=O)/C(=C/c1ccc(Cl)c(Cl)c1)c1ccccc1.Cl [JN057] | HIGH | MED | – | – | – | MED | – | MED | – | – | – | – | – | – | – | –
CNC(=O)c1ccc(N2C(=S)N(c3ccc(C#N)c(C(F)(F)F)c3)C(=O)C2(C)C)cc1F [MDV 3100, enzalutamide, reference compound] | LOW | – | LOW | – | HIGH | LOW | LOW | HIGH | HIGH | – | – | – | – | – | – | –
C=C(C)C(=O)NC(=O)/C(=C/c1ccc(Cl)cc1)c1ccccc1 [JN102, (E)-3-(4-Chlorophenyl)-N-methacryloyl-2-phenylacrylamide] | – | – | – | – | – | – | – | – | – | inhibited reporter activity | did not influence growth | did not influence growth | improved growth suppressive effects | suppressed growth | – | –
O=C(/C=C/c1ccc(F)cc1)C(=Cc1ccc(F)cc1)c1ccccc1 [JN051] | HIGH | HIGH | – | – | HIGH | HIGH | – | HIGH | – | – | – | – | – | – | – | –
CN(C/C(=C\c1ccc(Cl)cc1)C(=O)c1ccc(Cl)cc1)Cc1ccccc1 [JN050] | HIGH | HIGH | LOW | HIGH | HIGH | MED | MED | HIGH | – | – | – | – | – | – | – | –
C=CC(O)/C(=C\c1ccc(Cl)cc1)c1ccccc1 (centres unmarked) [JN003, (Z)-1-(4-Chlorophenyl)-2-phenylpenta-1,4-dien-3-ol] | LOW | HIGH | LOW | HIGH | – | LOW | LOW | LOW | – | – | – | – | – | – | – | –
C=C(CN(C)Cc1ccccc1)C(=O)/C(=C/c1ccc(Cl)c(F)c1)c1ccccc1.Cl [JN082] | – | LOW | – | – | LOW | LOW | – | LOW | – | – | – | – | – | – | – | –
C=C(CN(C)Cc1ccccc1)C(=O)/C(=C/c1ccc(Cl)cc1F)c1ccccc1.Cl [JN083] | – | HIGH | – | – | LOW | MED | – | MED | – | – | – | – | – | – | – | –
C=C(C)C(=O)NC(=O)/C(=C/c1ccc(Cl)cc1)c1ccc(F)cc1 [JN103] | – | – | – | – | – | – | – | – | – | inhibited reporter activity | did not influence growth | did not influence growth | improved growth suppressive effects | suppressed growth | inhibit the growth; also recorded: demonstrated anti-tumor effects | limited or no outward signs of toxicity
CN(C/C(=C\c1cccc(Cl)c1)C(=O)c1ccccc1)Cc1ccccc1 [JN048] | LOW | HIGH | LOW | HIGH | HIGH | LOW | LOW | HIGH | – | – | – | – | – | – | – | –
C=C(CN(C)Cc1ccccc1)C(=O)/C(=C/c1ccc(Cl)cc1)c1ccc(F)cc1.Cl [JN090] | – | – | – | – | – | – | – | – | – | – | – | – | – | – | inhibit the growth; also recorded: demonstrated anti-tumor effects | limited or no outward signs of toxicity
CN(C/C(=C\c1ccc(C(F)(F)F)cc1)C(=O)c1ccccc1)Cc1ccccc1 [JN044] | HIGH | MED | LOW | HIGH | HIGH | MED | MED | HIGH | – | – | – | – | – | – | – | –
CN(C)C/C(=C\c1ccc(Cl)cc1)C(=O)c1ccccc1 [JN024] | – | HIGH | HIGH | HIGH | HIGH | MED | HIGH | HIGH | – | – | – | – | – | – | – | –
C=C(CN(C)Cc1ccccc1)C(=O)/C(=C\c1ccc(F)cc1)c1ccccc1.Cl [JN055] | HIGH | MED | – | – | MED | – | – | – | – | – | – | – | – | – | – | –
C=C(CN(C)Cc1ccccc1)C(=O)/C(=C/c1cccc(Cl)c1)c1ccccc1.Cl [JN060] | HIGH | HIGH | – | – | HIGH | HIGH | – | HIGH | – | – | – | – | – | – | – | –
C=C(C)C(=O)/C(=C\c1ccc(Cl)cc1)c1ccccc1 [JN025] | – | HIGH | – | – | HIGH | MED | – | LOW | – | – | – | – | – | – | – | –
CN(C/C(=C\c1ccc(Cl)cc1)C(=O)c1ccccc1)Cc1ccccc1 [JN017, (E)-2-((Benzyl(methyl)amino)methyl)-3-(4-chlorophenyl)-1-phenylprop-2-en-1-one] | – | LOW | LOW | HIGH | LOW | MED | LOW | HIGH | – | – | – | – | – | – | – | –
